Assay results published in US4863902A, “Treatment of cancer” (Wakunaga Seiyaku Kabushiki Kaisha, priority 1985, dated 1989).

Columns and labels:
[1] = tested on: mouse ovarian tumor M5076; test: Tumor weight of solid tumor of mouse ovarian tumor in BDF1 mice; assay type: in vivo; conditions: for Tumor weight (day 1 = 100): Table 9, cisplatin 5 mg/Kg, hEGF, [Leu^21 ]-hEGF or hEGF-II 100 μg/Kg subcutaneous, average ± standard error
Description: BDF1 male mice were employed. The feeding conditions were the same as in Experimental Example 1.
Mouse ovarian tumor M5076 was transplanted subcutaneously at the axialla of mouse in 1-2×10^6 cells per mouse. 12 days after transplantation, the size of tumor was measured according to the same method as in Experimental Example 1 (Colon 26) and the tumor weight was calculated.
The grouping operation on initiation of Experiments was conducted in the same manner as in Experimental Example 1. The compounds were administered in the same manner as in Experimental Example 9.
The experiment was carried out in the samme manner as in Experimental Examples 1, 7 and as in Experimental Example 17 for others.

[2] = tested on: Colon adenocarcinoma 38 (mouse colon adenocarcinoma); test: Tumor weight of transplanted Colon adenocarcinoma 38 in C57BL/6 mice; assay type: in vivo; conditions: for tumor growth inhibiting effect, same experiment as Experimental Example 19: used in place of 5-FU in combination with FGF; for antitumor effect of (a) + (b) (quantity not headed; method of Experimental Example 4): Table 21
Description: Colon adenocarcinoma 38 (mouse colon adenocarcinoma) was minced into pieces and about 0.1 to 0.2 ml thereof was transplanted subcutaneously on the right side of mouse abdomen by a cell transplanting needle (trocker). Eleven days after transplantation, the size of tumor, namely longer diameter (a mm) and shorter diameter (b mm) of tumor were measured and the tumor weight was calculated according to the formula shown below [Instruction 14 (NCI) 1980].
Tumor weight (mg)=ab^2 /2
In the Table, days indicate the experimental days with the day of compound administration being as the day 1, and the tumor weight immediately before administration of compound of day 1 is made 100. The respective values show the average value ± standard error of case numbers of 10 to 20, in the Table, the marks of (*), * and *** indicate the statistical significance difference of the combined administration group relative to the 5-FU single administration group (the definition of P is as defined above).

[3] = Table 12, day 4 after compound administration, weight before administration = 100, Tegafur 400, 5-FU 150, Mitomycin-C 5, Cisplatin 5 mg/Kg, hIGF-II 50 μg/Kg subcutaneous, average ± standard error of 8-10 mice
[4] = Table 13, same method as Experimental Example 20 (day 4), Tegafur 400, Mitomycin-C 5, Adriamycin 10, Cisplatin 5 mg/Kg, Insulin 50 m μg/Kg subcutaneous
[5] = Table 14, hTGFα 100 μg/10 ml/Kg with 5-FU, Tegafur, Mitomycin-C, Adriamycin or Cisplatin, as described for Table 12
[6] = Table 15, day 4 after compound administration, hTGFβ and hEGF 100 μg/Kg with each compound having antitumor action
[7] = (a) Adriamycin, Mixed injection
[8] = (a) Adriamycin, Separate injection
[9] = (a) Cisplatin, Separate injection
[10] = (a) Tegafur, Separate injection

Row | Compound | Tumor weight ratio(%) [2, 3] | Tumor weight ratio(%) [2, 4] | Tumor weight ratio(%) [2, 5] | Tumor weight ratio(%) [2, 6] | tumor growth inhibiting effect, same experiment as Experimental Example 19 [2] | antitumor effect of (a) + (b) (quantity not headed; method of Experimental Example 4) [2, 7] | antitumor effect of (a) + (b) (quantity not headed; method of Experimental Example 4) [2, 8] | antitumor effect of (a) + (b) (quantity not headed; method of Experimental Example 4) ([2]; (a) Cisplatin, Mixed injection) | antitumor effect of (a) + (b) (quantity not headed; method of Experimental Example 4) [2, 9] | antitumor effect of (a) + (b) (quantity not headed; method of Experimental Example 4) ([2]; (a) Tegafur, Mixed injection) | antitumor effect of (a) + (b) (quantity not headed; method of Experimental Example 4) [2, 10] | other results
1 | N.N.[Cl][Pt][Cl] [Cisplatin, cisplatin] | 145.6 ± 9.1% | 145.6 ± 9.1% | 145.6 ± 9.1% | 139.8 ± 9.9% | the same results | – | – | – | – | – | – | Tumor weight (day 1 = 100) ([1]; day 2): 126.4 ± 9.0; Tumor weight (day 1 = 100) ([1]; day 3): 125.49 ± 8.3; Tumor weight (day 1 = 100) ([1]; day 4): 136.9 ± 5.2; Tumor weight (day 1 = 100) ([1]; day 5): 143.6 ± 14.5; Tumor weight (day 1 = 100) ([1]; day 6): 192.0 ± 20.6
2 | O=P1(N(CCCl)CCCl)NCCCO1 (stereo not shown) [Cyclophosphamide, cyclophosphamide] | – | – | – | 90.6 ± 7.6% | the same results | – | – | – | – | – | – | Tumor weight (day 1 = 100) ([2]; Table 7, day 2, cyclophosphamide 200 mg/Kg, hEGF 100 μg/Kg subcutaneous on day 1 and day 3, average ± standard error of 8 mice): 145.2 ± 18.2; Tumor weight (day 1 = 100) ([2]; Table 7, day 3, cyclophosphamide 200 mg/Kg, hEGF 100 μg/Kg subcutaneous on day 1 and day 3, average ± standard error of 8 mice): 147.6 ± 13.7; Tumor weight (day 1 = 100) ([2]; Table 7, day 4, cyclophosphamide 200 mg/Kg, hEGF 100 μg/Kg subcutaneous on day 1 and day 3, average ± standard error of 8 mice): 102.4 ± 8.6; Tumor weight (day 1 = 100) ([2]; Table 7, day 5, cyclophosphamide 200 mg/Kg, hEGF 100 μg/Kg subcutaneous on day 1 and day 3, average ± standard error of 8 mice): 92.2 ± 5.1; Tumor weight (day 1 = 100) ([2]; Table 7, day 6, cyclophosphamide 200 mg/Kg, hEGF 100 μg/Kg subcutaneous on day 1 and day 3, average ± standard error of 8 mice): 108.5 ± 19.6; Tumor weight (day 1 = 100) ([2]; Table 7, day 7, cyclophosphamide 200 mg/Kg, hEGF 100 μg/Kg subcutaneous on day 1 and day 3, average ± standard error of 8 mice): 110.9 ± 21.3
3 | CO[C@@]12[C@H](COC(N)=O)C3=C(C(=O)C(C)=C(N)C3=O)N1C[C@@H]1N[C@@H]12 [MMC, mitomycin C] | 95.8 ± 5.5% | 95.8 ± 5.5% | 95.8 ± 5.5% | 101.1 ± 8.3% | the same results | – | – | – | – | – | – | Tumor weight (day 1 = 100) ([2]; Table 8, day 2, MMC 5 mg/Kg, hEGF, hEGF-II or [Leu^21 ]-hEGF 100 μg/Kg subcutaneous on day 1 and day 5, average ± standard error of 6 mice): 130.8 ± 8.5; Tumor weight (day 1 = 100) ([2]; Table 8, day 3, MMC 5 mg/Kg, hEGF, hEGF-II or [Leu^21 ]-hEGF 100 μg/Kg subcutaneous on day 1 and day 5, average ± standard error of 6 mice): 106.1 ± 9.4; Tumor weight (day 1 = 100) ([2]; Table 8, day 4, MMC 5 mg/Kg, hEGF, hEGF-II or [Leu^21 ]-hEGF 100 μg/Kg subcutaneous on day 1 and day 5, average ± standard error of 6 mice): 95.8 ± 5.5; Tumor weight (day 1 = 100) ([2]; Table 8, day 5, MMC 5 mg/Kg, hEGF, hEGF-II or [Leu^21 ]-hEGF 100 μg/Kg subcutaneous on day 1 and day 5, average ± standard error of 6 mice): 98.6 ± 3.9; Tumor weight (day 1 = 100) ([2]; Table 8, day 6, MMC 5 mg/Kg, hEGF, hEGF-II or [Leu^21 ]-hEGF 100 μg/Kg subcutaneous on day 1 and day 5, average ± standard error of 6 mice): 160.7 ± 10.9; Tumor weight (day 1 = 100) ([2]; Table 8, day 7, MMC 5 mg/Kg, hEGF, hEGF-II or [Leu^21 ]-hEGF 100 μg/Kg subcutaneous on day 1 and day 5, average ± standard error of 6 mice): 150.8 ± 15.9; Tumor weight (day 1 = 100) ([2]; Table 8, day 8, MMC 5 mg/Kg, hEGF, hEGF-II or [Leu^21 ]-hEGF 100 μg/Kg subcutaneous on day 1 and day 5, average ± standard error of 6 mice): 263.6 ± 30.8; Tumor weight (day 1 = 100) ([2]; Table 8, day 9, MMC 5 mg/Kg, hEGF, hEGF-II or [Leu^21 ]-hEGF 100 μg/Kg subcutaneous on day 1 and day 5, average ± standard error of 6 mice): 308.7 ± 54.0
4 | O=c1[nH]c(=O)n(C2CCCO2)cc1F (stereo not shown) [Tegafur, 1-(2-tetrahydrofuryl)-5-fluorouracil] | 95.2 ± 15.4% | 95.2 ± 15.4% | 95.2 ± 15.4% | 118.0 ± 9.8% | – | – | – | – | – | – | – | Tumor weight (day 1 = 100) ([2]; Table 6, day 2, Tegafur 400 mg/Kg, hEGF 100 μg/Kg subcutaneous on day 1 and day 4, average ± standard error of 7 mice): 89.0 ± 10.5; Tumor weight (day 1 = 100) ([2]; Table 6, day 3, Tegafur 400 mg/Kg, hEGF 100 μg/Kg subcutaneous on day 1 and day 4, average ± standard error of 7 mice): 102.1 ± 13.5; Tumor weight (day 1 = 100) ([2]; Table 6, day 4, Tegafur 400 mg/Kg, hEGF 100 μg/Kg subcutaneous on day 1 and day 4, average ± standard error of 7 mice): 105.5 ± 18.4; Tumor weight (day 1 = 100) ([2]; Table 6, day 5, Tegafur 400 mg/Kg, hEGF 100 μg/Kg subcutaneous on day 1 and day 4, average ± standard error of 7 mice): 104.2 ± 22.6; Tumor weight (day 1 = 100) ([2]; Table 6, day 6, Tegafur 400 mg/Kg, hEGF 100 μg/Kg subcutaneous on day 1 and day 4, average ± standard error of 7 mice): 94.5 ± 16.9; Tumor weight (day 1 = 100) ([2]; Table 6, day 7, Tegafur 400 mg/Kg, hEGF 100 μg/Kg subcutaneous on day 1 and day 4, average ± standard error of 7 mice): 131.4 ± 23.3; Tumor weight (day 1 = 100) ([2]; Table 6, day 8, Tegafur 400 mg/Kg, hEGF 100 μg/Kg subcutaneous on day 1 and day 4, average ± standard error of 7 mice): 143.7 ± 20.6; Tumor weight ratio(%) ([2]; Table 16, day 4 after administration, Tegafur in place of 5-FU, FGF as in Experimental Example 19): 103.1 ± 13.1%; Tumor weight ratio(%) ([2]; Table 17, day 4 after compound administration, Tegafur 400 mg/Kg, hEGF, hEGF-II, [Leu^21 ]-hEGF each 100 μg/Kg, RA 30 mg/Kg subcutaneous): 90.6 ± 11.5%
5 | Insulin | – | – | – | – | – | 110.2 | 121.1 | 105.6 | 110.3 | 58.9 | 48.1 | –
6 | TGFα: human transforming growth factor α | – | – | – | – | – | 98.4 | 92.6 | 80.4 | 80.1 | 34.3 | 40.6 | –
7 | [Leu^21 ]-hEGF: derivative of hEGF with the 21st methionine from the N-terminal substituted with leucine (NSDSECPLSHDGYCLHDGVCLYIEALDKYACNCVVGYIGERCQYRDLKWWELR; not fully specified; Epidermal growth factor; UniProt P01133 971-1023, looked up, variant M21L) | – | – | – | – | – | 99.6 | 97.8 | 90.4 | 100.1 | 48.1 | 50.3 | antitumor effect potentiation, same experiment as Experimental Example 17 ([1]; used together with mytomycin C in place of cisplatin): the same results; tumor cell growth inhibition, same experiment as Experimental Example 4 ([2]; used in place of hEGF in combination with 5-FU): the same results; tumor cell growth inhibition, same experiment as Experimental Example 14 ([2]; used in place of hEGF in combination with Tegafur): the same results; antitumor action potentiating effect, same experiment as Experimental Example 9 ([2]; used in place of hEGF in combination with cisplatin): the same results; tumor cell growth inhibiting effect, same experiment as Experimental Example 15 ([2]; used in place of hEGF in combination with cyclophosphamide): the same results
